Assay [1] addresses T1, STAT5A (Homo sapiens, UniProt P42229).
T1 sequence (P42229 1-794): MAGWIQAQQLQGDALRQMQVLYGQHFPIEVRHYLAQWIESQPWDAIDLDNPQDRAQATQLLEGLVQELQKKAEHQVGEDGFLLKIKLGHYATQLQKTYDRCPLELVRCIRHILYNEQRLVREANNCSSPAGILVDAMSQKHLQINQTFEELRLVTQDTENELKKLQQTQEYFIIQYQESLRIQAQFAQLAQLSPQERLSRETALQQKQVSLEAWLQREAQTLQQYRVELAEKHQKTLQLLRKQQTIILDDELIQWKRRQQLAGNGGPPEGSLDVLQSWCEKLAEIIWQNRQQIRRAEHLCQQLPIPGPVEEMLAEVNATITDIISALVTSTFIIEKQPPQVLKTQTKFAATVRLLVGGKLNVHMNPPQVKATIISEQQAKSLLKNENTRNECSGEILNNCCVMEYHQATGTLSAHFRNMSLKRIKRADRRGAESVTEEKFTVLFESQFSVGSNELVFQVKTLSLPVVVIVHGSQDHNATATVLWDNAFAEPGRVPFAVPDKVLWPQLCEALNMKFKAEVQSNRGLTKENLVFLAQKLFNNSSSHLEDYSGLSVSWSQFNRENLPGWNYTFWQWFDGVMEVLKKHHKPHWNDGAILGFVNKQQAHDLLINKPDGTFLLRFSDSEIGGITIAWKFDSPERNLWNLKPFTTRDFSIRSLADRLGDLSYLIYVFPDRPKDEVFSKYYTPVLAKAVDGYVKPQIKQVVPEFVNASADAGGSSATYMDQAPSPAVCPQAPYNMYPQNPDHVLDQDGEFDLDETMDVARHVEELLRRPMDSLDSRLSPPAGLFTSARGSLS
Description: Fluorescence polarization (FP) binding assay, STAT5A. Conditions: FP competition, 5 nM fluorescein-labeled tracer, 200 nM protein, PBS pH7.4. An outline of the steps:
(§1)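 Tracer (fluorescein-labeled, 5 nM) was mixed with 200 nM STAT5 and/or STAT6 in PBS pH 7.4 plus 0.01% BGG, 0.01% Tween-20, 2 mM DTT. After 15 min shaking and 1 h at room temperature to equilibrium, polarization was measured and constants derived by nonlinear fitting.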
(In fluorescence polarisation assays a small probe gives low polarisation when free and higher when bound to something large.)

Assay [2] has as its target T2, STAT6 protein (Homo sapiens, UniProt P42226).
T2 sequence (P42226 1-847): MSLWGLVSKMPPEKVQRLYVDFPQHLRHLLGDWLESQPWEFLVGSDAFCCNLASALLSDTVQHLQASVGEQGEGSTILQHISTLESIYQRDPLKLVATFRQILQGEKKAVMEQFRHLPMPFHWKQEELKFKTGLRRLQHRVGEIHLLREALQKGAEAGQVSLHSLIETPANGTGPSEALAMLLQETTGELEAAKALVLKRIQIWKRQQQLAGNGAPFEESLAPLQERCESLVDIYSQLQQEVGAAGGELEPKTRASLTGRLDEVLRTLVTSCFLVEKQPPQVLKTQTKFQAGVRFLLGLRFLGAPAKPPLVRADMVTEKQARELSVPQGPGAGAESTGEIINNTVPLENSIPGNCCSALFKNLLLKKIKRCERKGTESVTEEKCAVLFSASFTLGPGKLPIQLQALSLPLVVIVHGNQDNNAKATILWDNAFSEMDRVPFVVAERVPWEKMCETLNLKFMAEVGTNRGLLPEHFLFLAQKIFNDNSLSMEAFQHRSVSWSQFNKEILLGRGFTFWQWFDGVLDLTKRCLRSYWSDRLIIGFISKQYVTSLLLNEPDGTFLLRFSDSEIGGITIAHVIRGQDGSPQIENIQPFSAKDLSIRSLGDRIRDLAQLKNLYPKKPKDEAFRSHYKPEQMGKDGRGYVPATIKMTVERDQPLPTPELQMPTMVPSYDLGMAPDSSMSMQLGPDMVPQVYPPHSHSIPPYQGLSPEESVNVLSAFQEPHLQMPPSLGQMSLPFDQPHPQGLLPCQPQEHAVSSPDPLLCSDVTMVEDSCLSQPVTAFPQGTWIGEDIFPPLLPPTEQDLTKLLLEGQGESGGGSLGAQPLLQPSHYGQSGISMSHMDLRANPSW
Briefly: Fluorescence polarization (FP) binding assay, STAT6. Conditions: FP competition, 5 nM fluorescein-labeled tracer, 200 nM protein, PBS pH7.4; read-out: Binding STAT6. An outline of the steps: as §1

With `CCO[C@H]1CCN(C(=O)[C@@H](NC(=O)c2cc3cc(C(F)(F)P(=O)(O)O)ccc3s2)C(C)(C)C)[C@@H]1C(=O)N1CCO[C@H](c2ccccc2)C1` [Compound 308, ((2-(((S)-1-((2S,3S)-3-ethoxy-2-((R)-2-phenylmorpholine-4-carbonyl)pyrrolidin-1-yl)-3,3-dimethyl-1-oxobutan-2-yl)carbamoyl)benzo[b]thiophen-5-yl)difluoromethyl)phosphonic acid], the Ki in assay [1] and in assay [2] was 1 to 10 µM each time.
For `CN(C)C(=O)CCN(C(=O)[C@@H]1CCCN1C(=O)[C@@H](NC(=O)c1cc2cc(C(F)(F)P(=O)(O)O)ccc2s1)C(C)(C)C)c1ccc(-c2nccs2)cc1` [Compound 309, ((2-(((S)-1-((S)-2-((3-(dimethylamino)-3-oxopropyl)(4-(thiazol-2-yl)phenyl)carbamoyl)pyrrolidin-1-yl)-3,3-dimethyl-1-oxobutan-2-yl)carbamoyl)benzo[b]thiophen-5-yl)difluoromethyl)phosphonic acid], the Ki lay within 1 to 10 µM in assay [1] and 0.1 to 1 µM in assay [2].
In the same order, the values of `CN(C)C(=O)CCN(C(=O)[C@@H]1CCCN1C(=O)[C@@H](NC(=O)c1cc2cc(C(F)(F)P(=O)(O)O)ccc2s1)C(C)(C)C)c1ccc2ccccc2c1` [Compound 317, ((2-(((S)-1-((S)-2-((3-(dimethylamino)-3-oxopropyl)(naphthalen-2-yl)carbamoyl)pyrrolidin-1-yl)-3,3-dimethyl-1-oxobutan-2-yl)carbamoyl)benzo[b]thiophen-5-yl)difluoromethyl)phosphonic acid] are 1 to 10 µM and 0.1 to 1 µM.
`CN(C)C(=O)CCN(C(=O)[C@@H]1CCCN1C(=O)[C@@H](NC(=O)c1cc2cc(C(F)(F)P(=O)(O)O)ccc2s1)C(C)(C)C)c1ccc(-c2ccccc2)cc1` [Compound 318]: the Ki in assay [1] and in assay [2] was 1 to 10 µM throughout.
In the case of `CN(C)C(=O)CCN(C(=O)[C@@H]1CCCN1C(=O)[C@@H](NC(=O)c1cc2cc(C(F)(F)P(=O)(O)O)ccc2s1)C(C)(C)C)c1cccc(-c2nccs2)c1` [Compound 320, ((2-(((S)-1-((S)-2-((3-(dimethylamino)-3-oxopropyl)(3-(thiazol-2-yl)phenyl)carbamoyl)pyrrolidin-1-yl)-3,3-dimethyl-1-oxobutan-2-yl)carbamoyl)benzo[b]thiophen-5-yl)difluoromethyl)phosphonic acid], the Ki in assay [1] is > 10 µM; in assay [2], 1 to 10 µM.
